Test results taken from patent US7491849B2, “Oligoamine compounds and derivatives thereof for cancer therapy” (priority 2001, dated 2009).

Tests used:
DuPro Cells = test: Cellular polyamine and oligoamine levels, DuPro cells (HPLC); assay type: cell-based
Protocol: Cellular Uptake of Oligoamines. There was considerable uptake of oligoamines by the cancer cell lines; see Table 3A (DuPro cells) and Table 3B (PC-3 cells). […] While not wishing to be limited by any particular theory of operation, the cytotoxicity is likely related to their strong aggregation effect on DNA.
Polyamine Analysis. An appropriate number of cells were taken from harvested samples and centrifuged at 1000 rpm at 4° C. for 5 min. The cells were washed twice with chilled Dulbecco's isotonic phosphate buffer (pH 7.4) by centrifugation at 1000 rpm at 4° C. and resuspended in the same buffer. After the final centrifugation, the supernatant was decanted, and […] of 8% sulfosalycilic acid was added to the cell pellet. The cells were sonicated, and the mixture was kept at 4° C. for at least 1 h. After centrifugation at 8000 g for 5 min, the supernatant was removed for analysis. An appropriate volume (50-100 μl) was fluorescence-labeled by derivatizing with dansyl chloride. Labeled polyamines were loaded onto a C-18 high-performance liquid chromatography column and separated by gradient elution with acetonitrile/water at 50° C. Peaks were detected and quantitated using Shimadzu HPLC fluorescence monitor coupled with a Spectra-Physics peak integrator. Because polyamine levels vary with environmental conditions, control cultures were sampled for each experiment.

[1] = system: DU-145 human prostate tumor xenografts; test: Subcutaneous DU-145 prostate tumor xenograft in mice; assay type: in vivo, male NCr-nu mice; conditions: for Days Delay (T-C) / Non-Specific Deaths/Total / Tumor Free Survival/Total / Tumor Regression, Number of Complete / Tumor Regression, Number of Partial / Days to 4 Doublings / % T/C, Day 21 (median tumor weight) / % T/C, Day 35 (median tumor weight) / median tumor growth delay [(T-C)/C x 100] / tolerability / deaths: 6.25 mg/kg IV; for Days Delay (T-C) / Non-Specific Deaths/Total / Tumor Free Survival/Total / Tumor Regression, Number of Complete / Tumor Regression, Number of Partial / Days to 4 Doublings / % T/C, Day 21 (median tumor weight) / % T/C, Day 35 (median tumor weight): Q1D x 5 day 14, 28; for Days to 4 Doublings: control 17.1; for % T/C, Day 21 (median tumor weight): three days after first round; for % T/C, Day 35 (median tumor weight): three days after second round; for median tumor growth delay [(T-C)/C x 100]: two rounds, statistically significant; for antitumor activity (summary): at a dosage which was well tolerated (6.25 mg/kg IV)
Protocol: Response of implanted sc DU-145 prostate tumors to treatment with SL-11159 and SL-11226. This experiment evaluates the antitumor efficacy of SLIL Biomedical Corporation compounds (SL-11159, SL-11226) against subcutaneously-implanted DU-145 human prostate tumor xenografts in male NCr-nu (line 3A10F17T1) mice. All compounds were tested at a single dose level when administered intravenously (iv), at 6.25 mg/kg. Both SL-11159 and SL-11226 were prepared in water for injection (soluble); the injection volume was 0.1 mL/10 g body weight.
All compounds were administered for two rounds of five daily treatments with a nine-day rest period between the rounds. The control group was treated with vehicle (water for injection) for two rounds on a Q1D×5 schedule. There were sixteen mice in the control group and eight mice in each of the treatment groups. All treatments were initiated on day 14 postimplant when all mice had established tumors ranging in size from 75 to 198 mg. The experiment was terminated on day 53 after tumor implantation. The individual animal's time to reach the evaluation size (time to reach four doublings) was used in the calculations of the median tumor growth delay [(T−C)/C×100, %] and as the endpoint in a life tables analysis (stratified Kaplan-Meier estimation followed by the Mantel-Haenszel log-rank test) in order to statistically compare the growth data between groups (see Table 5; group 1 is the control group, group 2 was treated with SL-11159, group 3 was treated with SL-11226).
The time required for a tumor to double in mass is calculated based on the initial tumor weight at the beginning of the treatment period. When the initial tumor weight has been selected, tumor weights are then examined, beginning with the last recorded value, until a doubling is calculated. Examination from the last recorded value is to ensure that the doubling time is calculated during the final phase of tumor growth and not prior to a tumor regression. Values between measurements are calculated by exponential […], and a value may be estimated after the final measured weight provided the extrapolated value occurs prior to the animal's death.)
Control tumors grew well in fourteen out of sixteen mice. There was one xenograft failure (no-take). One animal died during the second round of the vehicle treatment, on day 29, with a tumor weight of 770 mg. Tumors reached the evaluation size of four mass doublings in 17.1 days, which covers the period of the first round of treatment and three days of the second round of treatment. The effect of each round of treatment was evaluated by the comparison of the median tumor weight of the treated groups on days 21 or 35 (three days after the end of the first or the second round of treatment, respectively) to the median tumor weight of the control group on the same day (T/C×100%, see Table 4A).
Tumor regression was scored (excluding nonspecific deaths), according to the smallest tumor size attained after the beginning of treatment relative to the size at first treatment: • partial: <50 percent of its size at 1 st rx, but not complete. • complete: tumor becomes unpalpable.
Duration of regression: the interval during which a tumor classified as a partial or complete regressor was below 50 percent of its size at first treatment.
Evaluation size: this value is the tumor mass selected at four mass doublings beginning with the initial tumor size at the start of treatment.
T−C (days): the difference in the median of times postimplant for tumors of the treated groups to attain an evaluation size compared to the median of the control group.

[2] = Day 4 of Treatment, analog conc. 0.8 μM
[3] = Day 4 of Treatment, analog conc. 1.6 μM
[4] = Day 6 of Treatment, analog conc. 0.8 μM

CCNCCCCNCCCCNCCCCNCCCCNCCCCNCCCCNCCCCNCCCCNCCCCNCC.Cl.Cl.Cl.Cl.Cl.Cl.Cl.Cl.Cl.Cl [SL-11159]
Polyamine levels, Analog (cellular oligoamine level) (DuPro Cells; [2]): 0.525 nmoles/10^6 cells
Polyamine levels, Put (DuPro Cells; [2]): 0.560 nmoles/10^6 cells
Polyamine levels, Analog (cellular oligoamine level) (DuPro Cells; [3]): 0.513 nmoles/10^6 cells
Polyamine levels, Put (DuPro Cells; [3]): 0.137 nmoles/10^6 cells
Days Delay (T-C) [1]: >6.9 days
Non-Specific Deaths/Total [1]: 1/8
Tumor Free Survival/Total [1]: 0/8
Tumor Regression, Number of Complete [1]: 0
Tumor Regression, Number of Partial [1]: 0
Days to 4 Doublings [1]: >24.0 days
% T/C, Day 21 (median tumor weight) [1]: 65%
% T/C, Day 35 (median tumor weight) [1]: 63%
median tumor growth delay [(T-C)/C x 100] [1]: > 40%
antitumor activity (summary) [1]: measurable antitumor activity
tolerability / deaths ([1]; first round of treatment): well tolerated without deaths
tolerability / deaths ([1]; second round of treatment): death of one animal

CCNCCCCNCCCCNCCCCNCCCCNCCCCNCCCCNCCCCNCCCCNCCCCNCCCCNCCCCNCC.Cl.Cl.Cl.Cl.Cl.Cl.Cl.Cl.Cl.Cl.Cl.Cl [SL-11226]
Polyamine levels, Analog (cellular oligoamine level) (DuPro Cells; [2]): 0.032 nmoles/10^6 cells
Polyamine levels, Put (DuPro Cells; [2]): 0.593 nmoles/10^6 cells
Polyamine levels, Spd (DuPro Cells; [2]): 0.017 nmoles/10^6 cells
Polyamine levels, Spm (DuPro Cells; [2]): 0.067 nmoles/10^6 cells
Polyamine levels, Analog (cellular oligoamine level) (DuPro Cells; [4]): 0.022 nmoles/10^6 cells
Polyamine levels, Put (DuPro Cells; [4]): 0.548 nmoles/10^6 cells
Days Delay (T-C) [1]: >6.4 days
Non-Specific Deaths/Total [1]: 0/8
Tumor Free Survival/Total [1]: 0/8
Tumor Regression, Number of Complete [1]: 0
Tumor Regression, Number of Partial [1]: 0
Days to 4 Doublings [1]: >23.5 days
% T/C, Day 21 (median tumor weight) [1]: 46%
% T/C, Day 35 (median tumor weight) [1]: 61%
median tumor growth delay [(T-C)/C x 100] [1]: > 37%
antitumor activity (summary) [1]: measurable antitumor activity
tolerability / deaths ([1]; whole treatment (two rounds)): well tolerated without deaths
